The results in this text go back to patent publication US11731972B2, “Spiro compounds as glycosidase inhibitors” (Asceneuron SA, priority 2018, dated 2023).

Structures are written as SMILES. Some results are limits rather than exact numbers.

For this experiment, the target named is His-Tagged hOGA (human O-GlcNAcase) (Homo sapiens (Human), UniProt O60502). Briefly: Human O-GlcNAcase enzyme inhibition assay (Example B01). It is filed as biochemical. Particulars: OGA enzyme inhibition assay; FL-GlcNAc substrate, 60 min, room temperature, pH 6.5. The method, then: Example B01: Human O-GlcNAcase Enzyme Inhibition Assay
5 μl of the appropriate concentration of a solution of inhibitor in McIlvaine's Buffer (pH 6.5) in 2% DMSO (for a dose response curve calculation) is added into each well of a 384-well plate (Greiner, 781900). Then, 20 nM of His-Tagged hOGA and 10 μM of FL-GlcNAc (Fluorescein mono-beta-D-(2-deoxy-2-N-acetyl) glucopyranoside; Marker Gene Technologies Inc, M1485) were added to the 384-well plate for a final volume of 20 μl. After incubation for 60 min at room temperature, the reaction was terminated by the addition of 10 μL of stop buffer (200 mM glycine, pH 10.75). The level of fluorescence (λexc 485 nm; (λemm 520 nm) was read on a PHERAstar machine. The amount of fluorescence measured was plotted against the concentration of inhibitor to produce a sigmoidal dose response curve to calculate an IC50. All individual data was corrected by subtraction of the background (Thiamet 3 uM=100% inhibition) whilst 0.5% DMSO was considered as the control value (no inhibition).

Chain of His-Tagged hOGA (human O-GlcNAcase) (O60502 whole entry): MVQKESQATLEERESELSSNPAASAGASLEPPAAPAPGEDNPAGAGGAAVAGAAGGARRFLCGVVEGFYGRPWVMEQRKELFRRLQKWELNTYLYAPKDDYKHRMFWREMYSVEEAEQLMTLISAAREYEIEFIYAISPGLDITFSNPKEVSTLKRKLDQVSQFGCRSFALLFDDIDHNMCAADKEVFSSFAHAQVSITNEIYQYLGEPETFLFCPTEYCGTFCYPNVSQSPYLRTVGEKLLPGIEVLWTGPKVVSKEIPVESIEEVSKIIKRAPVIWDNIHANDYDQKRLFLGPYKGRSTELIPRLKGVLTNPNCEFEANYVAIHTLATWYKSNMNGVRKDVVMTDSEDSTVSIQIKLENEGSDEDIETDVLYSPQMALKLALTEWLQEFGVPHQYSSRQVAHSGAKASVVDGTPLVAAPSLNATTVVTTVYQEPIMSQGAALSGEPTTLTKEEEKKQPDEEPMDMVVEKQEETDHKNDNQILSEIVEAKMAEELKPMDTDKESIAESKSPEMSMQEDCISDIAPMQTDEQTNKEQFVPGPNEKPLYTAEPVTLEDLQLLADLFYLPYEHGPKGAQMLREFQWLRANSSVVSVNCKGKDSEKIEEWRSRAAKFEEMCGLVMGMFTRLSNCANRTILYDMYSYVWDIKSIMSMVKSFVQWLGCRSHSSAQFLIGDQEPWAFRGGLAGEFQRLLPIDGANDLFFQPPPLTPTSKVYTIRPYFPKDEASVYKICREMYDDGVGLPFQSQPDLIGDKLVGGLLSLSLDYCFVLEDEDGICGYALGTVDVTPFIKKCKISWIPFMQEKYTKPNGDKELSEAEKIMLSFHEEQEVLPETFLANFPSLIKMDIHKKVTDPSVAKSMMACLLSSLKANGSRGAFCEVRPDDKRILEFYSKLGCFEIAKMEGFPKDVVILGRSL

As a reminder, the IC50 is the point on the concentration scale where inhibition reaches its midpoint. Low values mean higher potency, high ones lower potency. The compound `CC(c1ccc2scnc2c1)N1CCC2(CC1)CN(c1ccc(F)cc1)C(=O)N2` (racemic) [Example 36, 8-(1-(benzo[d]thiazol-5-yl)ethyl)-3-(4-fluorophenyl)-1,3,8-triazaspiro[4.5]decan-2-one] yielded an IC50 of 200 to 1000 nM.

In turn, `CC(c1ccc2scnc2c1)N1CCC2(CC1)CN(c1cncnc1)C(=O)N2` (racemic) [Example 37, 8-(1-(benzo[d]thiazol-5-yl)ethyl)-3-(pyrimidin-5-yl)-1,3,8-triazaspiro[4.5]decan-2-one] gave an IC50 of 50 to 200 nM.

For `CC(c1ccc2scnc2c1)N1CCC2(CC1)CN(c1cccnn1)C(=O)N2` (racemic) [Example 59], the IC50 was less than 50 nM.

In turn, `Cc1cc(N2C(=O)NC3(CCN(C(C)c4ccc5scnc5c4)CC3)C2=O)cc(C)n1` (racemic) [Example 60] displayed an IC50 of less than 50 nM.

`Cc1ccc(N2C(=O)NC3(CCN(C(C)c4ccc5scnc5c4)CC3)C2=O)cn1` (racemic) [Example 61] returned a half-inhibitory concentration (IC50) of 50 to 200 nM.

For the compound `CC(c1ccc2scnc2c1)N1CCC2(CC1)NC(=O)N(c1cncnc1)C2=O` (racemic) [Example 62], the IC50 was in the range of 50 to 200 nM.

In turn, `CC(c1ccc2scnc2c1)N1CCC2(CC1)NC(=O)N(c1ccc(F)cc1)C2=O` (racemic) [Example 63] registered an IC50 of 50 to 200 nM.

On to `CC(c1ccc2scnc2c1)N1CCC2(CC1)NC(=O)N(c1cccc(S(C)(=O)=O)c1)C2=O` (racemic) [Example 64], for which the IC50 was in the range of 50 to 200 nM.

Regarding `CC(c1ccc2scnc2c1)N1CCC2(CC1)NC(=O)N(c1ccc(Cl)cc1)C2=O` (racemic) [Example 65], the IC50 lay within 50 to 200 nM.

`Cc1cc(CN2C(=O)NC3(CCN(C(C)c4ccc5scnc5c4)CC3)C2=O)cc(C)n1` (racemic) [Example 66] yielded an IC50 of 50 to 200 nM.

On to `Cc1cc(CN2C(=O)NC3(CCN(C(C)c4ccc5scnc5c4)CC3)C2=O)ccn1` (racemic) [Example 67], for which the IC50 lay in the range of 50 to 200 nM.

As for `Cc1cc(N2CC3(CCN(C(C)c4ccc5scnc5c4)CC3)CC2=O)n2nccc2n1` (racemic) [Example 72], the IC50 is 1000 to 10000 nM.

For `CC(c1ccc2scnc2c1)N1CCC2(CC1)CC(=O)N(c1ncccn1)C2` (racemic) [Example 73], the IC50 was in the range of 1000 to 10000 nM.

`CC(c1ccc2c(c1)OCC2)N1CCC2(CC1)C(=O)N(Cc1ccc(C#N)cc1)C(=O)N2C` (racemic) [Example 74] showed an IC50 of 1000 to 10000 nM.

In turn, `CC(c1ccc2scnc2c1)N1CCC2(CC1)C(=O)N(Cc1ccc(C#N)cc1)C(=O)N2C` (racemic) [Example 75] had an IC50 of 1000 to 10000 nM.

As for `CC(c1ccc2c(c1)OCC2)N1CCC2(CC1)C(=O)N(c1ccc(C#N)cc1)C(=O)N2C` (racemic) [Example 76], the IC50 lay in the range of 1000 to 10000 nM.

In turn, `CC(c1ccc2scnc2c1)N1CCC2(CC1)C(=O)N(Cc1ccc(S(C)(=O)=O)cc1)C(=O)N2C` (racemic) [Example 77] registered an IC50 of 1000 to 10000 nM.

`CC(=O)Nc1ncc(CN2CCC3(CC2)NC(=O)N(c2cc(C)nc(C)c2)C3=O)s1` (racemic) [IA2]: the half-maximal inhibitory concentration (IC50) lay in the range of 50 to 200 nM.

`CC(=O)Nc1ncc(CN2CCC3(CC2)NC(=O)N(Cc2ccc(C)nc2)C3=O)s1` (racemic) [IA3]: the IC50 is 50 to 200 nM.

With `CC(=O)Nc1ncc(CN2CCC3(CC2)NC(=O)N(Cc2cc(C)nc(C)c2)C3=O)s1` (racemic) [IA4], the IC50 is less than 50 nM.

Take `CC(=O)Nc1ncc(CN2CCC3(CC2)NC(=O)N(Cc2ccnc(C)c2)C3=O)s1` (racemic) [IA5]: the IC50 was less than 50 nM.

Turning to `CSc1cnc(N2CC3(CCN(Cc4cnc(NC(C)=O)s4)CC3)NC2=O)nc1` (racemic) [IA6], the IC50 was less than 50 nM.

In the case of `CC(=O)Nc1ncc(CN2CCC3(CC2)CC(=O)N(c2ccc(C#N)cc2)C3)s1` (racemic) [IA7], the IC50 fell in the range of 200 to 1000 nM.

With `CC(c1ccc2scnc2c1)N1CCC2(CC1)NC(=O)N(Cc1ccc(S(C)(=O)=O)cc1)C2=O` (stereo not shown) [Example 10], the IC50 is 50 to 200 nM.

`CC(=O)Nc1ncc(CN2CCC3(CC2)NC(=O)N(Cc2ccc(C(F)(F)F)nc2)C3=O)s1` [IA1] came in with an IC50 of 50 to 200 nM.
